Values of other authors in PMC7530097 (Chemical communications (Cambridge, England), 2020).

Columns and labels:
[1] = molecular target: Group-III agr subgroup of S. aureus (Staphylococcus aureus, UniProt O33590); details: read-out: IC50 (95% CI) Group-III; β-lactamase reporter cell assay; ref [6]
[2] = molecular target: Group-II agr subgroup of S. aureus (Staphylococcus aureus, UniProt O33587); details: read-out: IC50 (95% CI) Group-II; β-lactamase reporter cell assay; ref [6]
AgrC = details: ref [25]

| Substance | IC50 [1] [µM] | IC50 [2] [µM] | inhibition of AgrC (AgrC) |
| --- | --- | --- | --- |
| AIP-I | 0.003 | 0.025 | – |
| Solonamide B | – | – | competitively inhibit AgrC |
